This is an account of results in patent US20230094952A1, “Method for Culturing Hematopoietic Stem Cells” (Sumitomo Pharma Co., Ltd., priority 2019, published 2023).

The test relates to mouse long-term hematopoietic stem cells. The test can be described thus: Combination test with UM171 on mouse long-term hematopoietic stem cells. In kind it is cell-based. Conditions: for KLS-positive rate / Viable cell count / mCherry-positive rate: n=2. Here is the method:
The cells after classification were seeded in a 96-well plate. A cell culture medium was prepared by adding Stem Cell Factor (SCF, manufactured by PeproTech, Inc.) and Thrombopoietin (TPO, manufactured by PeproTech, Inc.) to StemSpan SFEM culture medium (manufactured by […] Technologies Inc.) and added in advance to a cell culture 96-well plate (manufactured by BD Biosciences) at 100 μL/well, and the cells sorted with the FACS Aria II cell sorter (BD Biosciences) were then seeded at 10 cells/well.
The test compounds each in the form of 10 mM DMSO solution were diluted with the cell culture medium to a final concentration of 1 μM, and added to the cells seeded after classification through medium exchange to a final volume of 200 μL/well. Thereafter, the cells were cultured in a CO2 incubator under conditions of 37° C. and 5% CO2 for 1 week.
After culture, the cells were stained with the antibodies for the surface markers c-Kit and Sca-1, Ter-119, B220, CD3, CD4, CD8a, Gr-1, and CD11b, and the ratio and post-growth cell count of a KLS fraction (c-Kit^+, Lin^−, Sca-1^+) or an mCherry-positive fraction given with use of a FACS Aria II cell sorter were analyzed by using FlowJo (BD Biosciences). The mCherry-positive fraction is a cell fraction expressing the Hoxb5 gene, and the KLS fraction is a cell fraction being c-Kit-positive, Lin-negative, and Sca-1-positive, and includes hematopoietic stem cells and multipotent progenitor cells as main components.
A DMSO solution of artemether was adjusted with the cell culture medium to three final concentrations (0.1 μM, 1 μM, 10 μM), and a DMSO solution of UM171 was adjusted with the cell culture medium to four final concentrations (0.1 μM, 0.3 μM, 1 μM, 3 μM), and cell culture was performed at n=2 by the same method as in Example 1. The cell culture and evaluation criteria were the same as those in Example 2.

Where [1] appears, read: UM171 0.1 μM alone (DMSO, no artemether).
Setting [2] is: UM171 0.3 μM alone (DMSO, no artemether).
Where [3] appears, read: UM171 1 μM alone (DMSO, no artemether).
The mark [4] stands for this setting: UM171 3 μM alone (DMSO, no artemether).

`Cn1nnc(-c2ccc3c(c2)[nH]c2nc(Cc4ccccc4)nc(N[C@H]4CC[C@H](N)CC4)c23)n1` [UM171, (1r,4r)-N1-(2-benzyl-7-(2-methyl-2H-tetrazol-5-yl)-9H-pyrimido[4,5-b]indol-4-yl)cyclohexane-1,4-diamine]: the KLS-positive rate is, setting by setting: under setting [1], 41.0%; under setting [2], 71.6%; under setting [3], 98.0%; under setting [4], 82.2%. In addition, the Viable cell count under setting [1] stood at 508.0 cell, the Viable cell count under setting [2] is 281.0 cell, the Viable cell count under setting [3] is given as 24.5 cell and the Viable cell count under setting [4] was found to be 82.5 cell. The mCherry-positive rate under setting [1] was 4.7%, the mCherry-positive rate under setting [2] is given as 17.1%, the mCherry-positive rate under setting [3] is listed as 38.9% and the mCherry-positive rate under setting [4] is reported as 16.2%. The “Effect of culture with artemether and UM171 together on mCherry-positive and KLS-positive cell ratios” value (compared with any one of the substances alone) is recorded as “combinational effect”.
